Experimental findings from US6750015B2 (priority 2000, dated 2004) are described below.

Molecules are shown by their SMILES.

In the assay the target is T1, PR-A (Homo sapiens, UniProt P06401).
T1 construct: expressed in transfected cells
T1 sequence (P06401 1-769 isoform P06401-2): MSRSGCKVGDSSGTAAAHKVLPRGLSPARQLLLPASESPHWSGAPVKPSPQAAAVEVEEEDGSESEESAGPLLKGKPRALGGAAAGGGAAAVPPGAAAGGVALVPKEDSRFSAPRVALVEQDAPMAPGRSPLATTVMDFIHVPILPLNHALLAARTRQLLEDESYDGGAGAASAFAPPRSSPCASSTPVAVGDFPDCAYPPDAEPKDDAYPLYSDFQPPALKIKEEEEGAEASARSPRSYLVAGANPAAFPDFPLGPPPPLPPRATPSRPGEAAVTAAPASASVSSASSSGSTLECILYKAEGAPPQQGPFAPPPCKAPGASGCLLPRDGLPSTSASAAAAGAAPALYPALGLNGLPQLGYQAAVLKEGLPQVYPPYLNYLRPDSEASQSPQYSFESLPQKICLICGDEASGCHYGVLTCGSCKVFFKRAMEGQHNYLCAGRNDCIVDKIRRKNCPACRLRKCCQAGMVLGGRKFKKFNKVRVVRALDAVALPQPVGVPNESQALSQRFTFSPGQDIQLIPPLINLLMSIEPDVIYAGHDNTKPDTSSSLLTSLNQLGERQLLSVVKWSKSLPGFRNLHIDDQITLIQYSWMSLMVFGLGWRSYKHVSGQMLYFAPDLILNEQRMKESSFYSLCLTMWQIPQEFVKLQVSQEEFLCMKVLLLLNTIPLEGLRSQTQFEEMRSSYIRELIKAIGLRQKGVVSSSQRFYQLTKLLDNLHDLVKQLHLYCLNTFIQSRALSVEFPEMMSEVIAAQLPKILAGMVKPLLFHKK
Kind of assay: Transcriptional assay: integrin alpha 6 promoter-luciferase in HeLa cells cotransfected with PR-A. The class given is cell-based. Conditions: 10 nM progesterone 24 hours.

On to `CC(=O)[C@H]1CC[C@H]2[C@@H]3CCC4=CC(=O)CC[C@]4(C)[C@H]3CC[C@]12C` [progesterone], for which the “Transcription of the integrin alpha 6 promoter (luciferase)” value is “not regulated at all”.
